From patent publication US20200022370A1, “MICROBIOCIDAL OXADIAZOLE DERIVATIVES” (SYNGENTA PARTICIPATIONS AG, priority 2016, published 2020)

Experiments:
Uromyces viciae-fabae = Uromyces viciae-fabae / field bean / leaf disc preventative (faba-bean rust); type: in vivo; settings: foliar, 288 h, 100 ppm in the applied formulation, field bean leaf discs, inoculated two hours after application, vs untreated, 12 days after application, read-out: disease control
Method: (§1) Leaf disks or leaf segments of various plant species are cut from plants grown in a greenhouse. The cut leaf disks or segments are placed in multiwell plates (24-well format) onto water agar. The leaf disks are sprayed with a test solution before (preventative) or after (curative) inoculation. Compounds to be tested are prepared as DMSO solutions (max. 10 mg/ml) which are diluted to the appropriate concentration with 0.025% Tween20 just before spraying. The inoculated leaf disks or segments are incubated under defined conditions (temperature, relative humidity, light, etc.) according to the respective test system. A single evaluation of disease level is carried out 3 to 14 days after inoculation, depending on the pathosystem. Percent disease control relative to the untreated check leaf disks or segments is then calculated.
Example 5: Fungicidal Activity Against Uromyces viciae-fabael Field Bean/Leaf Disc Preventative (Faba-Bean Rust)
Field bean leaf discs are placed on water agar in multiwell plates (96-well format) and 10 μl of the Formulated test compound diluted in acetone and a spreader pipetted onto the leaf disc. Two hours after application leaf discs are inoculated by spraying a spore suspension on the lower leaf surface. The leaf discs are incubated in a climate cabinet at 22° C. with 18 hour day and 70% relative humidity. The activity of a compound is assessed as percent disease control compared to untreated when an appropriate level of disease damage appears in untreated check leaf disks (12 days after application).
The following compounds at 100 ppm in the applied Formulation give at least 80% disease control in this test when compared to untreated control leaf discs under the same conditions, which show extensive disease development.

[1] = test system: Glomerella lacenarium (Colletotrichum lacenarium); test: Glomerella lacenarium (Colletotrichum lacenarium) liquid culture / cucumber / preventative (anthracnose); type: cell-based; settings: 20 ppm, liquid culture in PDB, 24° C., inhibition of growth measured photometrically 3 to 4 days after application, vs untreated, read-out: disease control
Method in brief: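 Cryopreserved conidia in potato dextrose broth were added to test compound in a 96-well microtiter plate and incubated at 24 °C. Growth inhibition read photometrically 3–4 days after application, as percent activity versus untreated check.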

[2] = test system: Puccinia recondita f. Sp. Tritici; test: Puccinia recondita f. sp. tritici / wheat / leaf disc preventative (brown rust); type: in vivo; settings: foliar, 200 ppm in the applied formulation, wheat leaf segments cv. Kanzler, inoculated 1 day after application, vs untreated, 7 to 9 days after application, read-out: disease control
Method in brief: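 Segments of cv. Kanzler wheat on agar received a spray of compound formulation diluted in water and were inoculated with spores one day afterwards. Kept at 19° C and 75% rh under 12 h/12 h light; disease control relative to untreated checks rated at 7–9 days post-application.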

Phakopsora pachyrhizi = Phakopsora pachyrhizi / soybean / leaf disc preventative (Asian soybean rust); type: in vivo; settings: foliar, 200 ppm in the applied formulation, soybean leaf disks, inoculated one day after application, vs untreated, 12 to 14 days after application, read-out: disease control
Method in brief: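 Soybean leaf discs on water agar sprayed with formulated compound diluted in water, then inoculated one day later with spore suspension on the lower surface. Held 24-36 h dark at 20 °C, 75% rh, then 12 h light/day; percent disease control versus untreated scored 12-14 days after application.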

[3] = test system: Puccinia recondita f. Sp. Tritici; test: Puccinia recondita f. sp. tritici / wheat / leaf disc curative (brown rust); type: in vivo; settings: foliar, 200 ppm in the applied formulation, wheat leaf segments cv. Kanzler, compound applied 1 day after inoculation, vs untreated, 6 to 8 days after application, read-out: disease control
Method: as §1
Example 2: Fungicidal Activity Against Puccinia recondita f. sp. tritici/Wheat/Leaf Disc Curative (Brown Rust)
Wheat leaf segments cv. Kanzler are placed on agar in multiwell plates (24-well format). The leaf segments are then inoculated with a spore suspension of the fungus. Plates were stored in darkness at 19° C. and 75% relative humidity. The Formulated test compound diluted in water was applied 1 day after inoculation. The leaf segments were incubated at 19° C. and 75% relative humidity under a light regime of 12 hours light/12 hours darkness in a climate cabinet and the activity of a compound was assessed as percent disease control compared to untreated when an appropriate level of disease damage appears in untreated check leaf segments (6 to 8 days after application).
The following compounds at 200 ppm in the applied Formulation give at least 80% disease control in this test when compared to untreated control leaf disks under the same conditions, which show extensive disease development.

Row | Compound | pest or weed control at 100 ppm (Uromyces viciae-fabae) [%] | further results
1 | CC(=O)N(c1ccc(-c2noc(C(F)(F)F)n2)cc1)C(C)(C)C(=O)NC(C)(C)C [Compound 1.61, 2-[N-acetyl-4-[5-(trifluoromethyl)-1,2,4-oxadiazol-3-yl]anilino]-N-tert-butyl-2-methyl-propanamide] | ≥ 80 | –
2 | O=C(Nc1ccc(-c2noc(C(F)(F)F)n2)cc1)c1ccc(-n2ccnc2)cc1 [Compound 1.42, 4-imidazol-1-yl-N-[4-[5-(trifluoromethyl)-1,2,4-oxadiazol-3-yl]phenyl]benzamide] | ≥ 80 | –
3 | CC(=O)N(c1ccc(-c2noc(C(F)(F)F)n2)cc1)C(C)C(=O)NC(C)(C)C (stereo not shown) [Compound 1.59, 2-[N-acetyl-4-[5-(trifiuoromethyl)-1,2,4-oxadiazol-3-yl]anilino]-N-tert-butyl-propanamide] | ≥ 80 | –
4 | O=C(COc1ccc(Oc2cccc(F)c2)cc1)Nc1ccc(-c2noc(C(F)(F)F)n2)cc1 [Compound 1.35, 2-[4-(3-fluorophenoxy)phenoxy]-N-[4-[5-(trifluoromethyl)-1,2,4-oxadiazol-3-yl]phenyl]acetamide] | ≥ 80 | –
5 | Cn1nc(C(=O)Nc2ccc(-c3noc(C(F)(F)F)n3)cc2)c(Cl)c1OC(F)F [Compound 1.25, 4-chloro-5-(difluoromethoxy)-1-methyl-N-[4-[5-(trifluoromethyl)-1,2,4-oxadiazol-3-yl]phenyl]pyrazole-3-carboxamide] | ≥ 80 | –
6 | O=C(Nc1ccc(-c2noc(C(F)(F)F)n2)cc1)c1nccc2nnsc12 [Compound 1.28, N-[4-[5-(trifluoromethyl)-1,2,4-oxadiazol-3-yl]phenyl]thiadiazolo [5,4-c]pyridine-4-carboxamide] | ≥ 80 | –
7 | COc1cc(OC)nc(Oc2ncccc2C(=O)Nc2ccc(-c3noc(C(F)(F)F)n3)cc2)n1 [Compound 1.22, 2-(4,6-dimethoxypyrimidin-2-yl)oxy-N-[4-[5-(trifluoromethyl)-1,2,4-oxadiazol-3-yl]phenyl]pyridine-3-carboxamide] | ≥ 80 | –
8 | Cc1sc(Nc2ccccc2)nc1C(=O)Nc1ccc(-c2noc(C(F)(F)F)n2)cc1 [Compound 1.37, 2-anilino-5-methyl-N-[4-[5-(trifluoromethyl)-1,2,4-oxadiazol-3-yl]phenyl]thiazole-4-carboxamide] | ≥ 80 | –
9 | O=C(Nc1ccc(-c2noc(C(F)(F)F)n2)cc1)c1cc(F)cc2nnsc12 [Compound 1.34, 5-fluoro-N-[4-[5-(trifluoromethyl)-1,2,4-oxadiazol-3-yl]phenyl]-1,2,3-benzothiadiazole-7-carboxamide] | ≥ 80 | –
10 | Cn1nc(C(C)(C)C)cc1C(=O)Nc1cccc(C(=O)Nc2ccc(-c3noc(C(F)(F)F)n3)cc2)c1 [Compound 1.33, 5-tert-butyl-2-methyl-N-[3-[[4-[5-(trifluoromethyl)-1,2,4-oxadiazol-3-yl]phenyl]carbamoyl]phenyl]pyrazole-3-carboxamide] | ≥ 80 | –
11 | O=C(NC(C(=O)Nc1ccc(-c2noc(C(F)(F)F)n2)cc1)c1ccccc1)OCc1ccccc1 (stereo not shown) [Compound 1.14, benzyl N-[2-oxo-1-phenyl-2-[4-[5-(trifluoromethyl)-1,2,4-oxadiazol-3-yl]anilino]ethyl] carbamate] | ≥ 80 | –
12 | O=C(C=Cc1cccc2ccccc12)Nc1ccc(-c2noc(C(F)(F)F)n2)cc1 [Compound 1.17, 3-(1-naphthyl)-N-[4-[5-(trifluoromethyl)-1,2,4-oxadiazol-3-yl]phenyl]prop-2-enamide] | ≥ 80 | –
13 | CC1Cc2c(Br)ccc(C(=O)Nc3ccc(-c4noc(C(F)(F)F)n4)cc3)c2S1(=O)=O (stereo not shown) [Compound 1.39, 4-bromo-2-methyl-1,1-dioxo-N-[4-[5-(trifluoromethyl)-1,2,4-oxadiazol-3-yl]phenyl]-2,3-dihydrobenzo-thiophene-7-carboxamide] | ≥ 80 | inhibition of growth at 20 ppm [1]: ≥ 80%
14 | CC(C)C(NC(=O)OC(C)(C)C)C1=NOC(C(=O)Nc2ccc(-c3noc(C(F)(F)F)n3)cc2)C1 (stereo not shown) [Compound 1.30, tert-butyl N-[2-methyl-1-[5-[[4-[5-(trifluoromethyl)-1,2,4-oxadiazol-3-yl]phenyl]carbamoyl]-4,5-dihydroisoxazol-3-yl]propyl]carbamate] | ≥ 80 | –
15 | COc1ccc(Br)cc1C(C)C(=O)Nc1ccc(-c2noc(C(F)(F)F)n2)cc1 (stereo not shown) [Compound 1.24, 2-(5-bromo-2-methoxy-phenyl)-N-[4-[5-(trifluoromethyl)-1,2,4-oxadiazol-3-yl]phenyl] propanamide] | ≥ 80 | –
16 | O=C(Nc1ccc(-c2noc(C(F)(F)F)n2)cc1)c1cccn2ccnc12 [Compound 1.7, N-[4-[5-(trifluoromethyl)-1,2,4-oxadiazol-3-yl]phenyl]imidazo[1,2-a]pyridine-8-carboxamide] | ≥ 80 | –
17 | O=C(Nc1ccc(-c2noc(C(F)(F)F)n2)cc1)c1ccccc1 [Compound 1.3, N-[4-[5-(trifluoromethyl)-1,2,4-oxadiazol-3-yl]phenyl]benzamide] | ≥ 80 | –
18 | O=C(Nc1ccc(-c2noc(C(F)(F)F)n2)cc1)c1cc(Br)nn1-c1ncccc1Cl [Compound 1.43, 5-bromo-2-(3-chloro-2-pyridyl)-N-[4-[5-(trifluoromethyl)-1,2,4-oxadiazol-3-yl]phenyl]pyrazole-3-carboxamide] | ≥ 80 | –
19 | O=C(Nc1ccc(-c2noc(C(F)(F)F)n2)cc1)C(F)(F)c1ccc(Br)cc1 [Compound 1.40, 2-(4-bromophenyl)-2,2-difluoro-N-[4-[5-(trifluoromethyl)-1,2,4-oxadiazol-3-yl]phenyl]acetamide] | ≥ 80 | –
20 | O=C(Nc1ccc(-c2noc(C(F)(F)F)n2)cc1)c1cccc(OCc2ccccc2)c1 [Compound 1.38, 3-benzyloxy-N-[4-[5-(trifluoromethyl)-1,2,4-oxadiazol-3-yl]phenyl]benzamide] | ≥ 80 | –
21 | COC(C)C(=O)Nc1ccc(-c2noc(C(F)(F)F)n2)cc1 (stereo not shown) [Compound 1.112, 2-methoxy-N-[4-[5-(trifluoromethyl)-1,2,4-oxadiazol-3-yl]phenyl] propanamide] | – | pest or weed control at 200 ppm [2]: ≥ 80%; inhibition of growth at 20 ppm [1]: ≥ 80%; pest or weed control at 200 ppm (Phakopsora pachyrhizi): ≥ 80%; pest or weed control at 200 ppm [3]: ≥ 80%
22 | CC1(C(=O)Nc2ccc(-c3noc(C(F)(F)F)n3)cc2)COC1 [Compound 1.102, 3-methyl-N-[4-[5-(trifluoromethyl)-1,2,4-oxadiazol-3-yl]phenyl]oxetane-3-carboxamide] | – | pest or weed control at 200 ppm [2]: ≥ 80%; inhibition of growth at 20 ppm [1]: ≥ 80%; pest or weed control at 200 ppm (Phakopsora pachyrhizi): ≥ 80%; pest or weed control at 200 ppm [3]: ≥ 80%
23 | O=C(Nc1ccc(-c2noc(C(F)(F)F)n2)cc1)c1cccc2c1OCCO2 [Compound 1.9, N-[4-[5-(trifluoromethyl)-1,2,4-oxadiazol-3-yl]phenyl]-2,3-dihydro-1,4-benzodioxine-5-carboxamide] | ≥ 80 | –
24 | O=C(Nc1ccc(-c2noc(C(F)(F)F)n2)cc1)c1cn(C2CC2)c2cc(Cl)c(F)cc2c1=O [Compound 1.8, 7-chloro-1-cyclopropyl-6-fluoro-4-oxo-N-[4-[5-(trifluoromethyl)-1,2,4-oxadiazol-3-yl]phenyl]quinoline-3-carboxamide] | ≥ 80 | –
